“And” between values parts separate entries of the source, which are not always exact repeats. Identical values can stand only once.
Tests used:
[1] = system: Triticum aestivum (spring wheat, TRZAS); experiment: Greenhouse postemergence crop phytotoxicity, visual injury 20-22 d after spraying, spring wheat (TRZAS); assay type: in vivo; conditions: for % visual injury Obs: TRZAS
Source text: (§1) Seeds of the desired test plant species were planted in a 90:10% v/v (volume/volume) mixture of PRO-MIX® BX (Premier Tech Horticulture, Quakertown, Pa., USA) and PROFILE® GREENS GRADE™ (Profile Products LLC, Buffalo Grove, Ill., USA) planting mixture, which typically has a pH of 5.2 to 6.2 and an organic matter content of at least 50 percent, in plastic pots with a surface area of 103.2 square centimeters (cm^2). In some aspects, to ensure good germination and healthy plants, a fungicide treatment and/or other chemical or physical treatment was applied. The plants were grown for 7-36 days (d) in a greenhouse with an approximate 14-hour (h) photoperiod which was maintained at about 23° C. during the day and 22° C. during the night. Nutrients and water were added on a regular basis and supplemental lighting was provided with overhead metal halide 1000-Watt lamps as necessary. The plants were employed for testing when they reached the second or third true leaf stage.
(§2) Emulsifiable concentrates of each of each pyridine carboxylate herbicide (Compound A or Compound B) were prepared at 100 grams acid equivalent per liter (g ae/L). The emulsifiable concentrates also included a safener, cloquintocet-mexyl, at 120 grams active ingredient per liter (g ai/L). An aliquot of each emulsifiable concentrate was placed in a 25 mL glass vial and diluted with an aqueous mixture of 1.25% (v/v) ACTIROB® B esterified rapeseed oil (Bayer Crop Science, Research Triangle Park, N.C., USA) or MSO® Concentrate with LECI-TECH® methylated soybean oil (Loveland Products, Loveland, Colo., USA) to obtain concentrated stock solutions at the highest application rate for each herbicide, based upon a 12 milliliter (mL) application volume at a rate of 187 liters per hectare (L/ha). The concentrated stock solutions were further diluted with an aqueous mixture of 1.25% v/v ACTIROB® B or MSO® Concentrate with LECI-TECH® to obtain stock solutions at reduced application rates for each herbicide. Spray solutions of the herbicide combinations (Compound A or Compound B plus VLCFA synthesis inhibitor herbicide) were prepared by adding weighed amounts or aliquots of the VLCFA synthesis inhibitor herbicide to the stock solutions of Compound A or Compound B to form 12-mL spray solutions in two-way combinations.
(§3) The spray solutions were applied to the plant material with an overhead Mandel track sprayer equipped with 8002E nozzles calibrated to deliver 187 L/ha over an application area of 0.503 square meters (m^2) at a spray height of 18 inches ([…] (cm)) above the average plant canopy. Control plants were sprayed in the same manner with the solvent blank. All pyridine carboxylate herbicide (component a) application rates are given as “g ae/ha” and all VLCFA synthesis inhibitor herbicide (component b) application rates are given as “g ai/ha.”
(§4) The treated plants and control plants were placed in a greenhouse as described above and watered by sub-irrigation to prevent wash-off of the test compounds. After 20-22 d, the condition of the test plants as compared with that of the control plants was determined visually and scored on a scale of 0 to 100 percent where 0 corresponds to no injury and 100 corresponds to complete kill.

[2] = system: Hordeum vulgare (spring barley, HORVS); experiment: Greenhouse postemergence crop phytotoxicity, visual injury 20-22 d after spraying, spring barley (HORVS); assay type: in vivo; conditions: for % visual injury Obs: HORVS
Source text: as §1, §2, §3, §4

[3] = system: Brassica napus (spring rape, BRSNN); experiment: Greenhouse postemergence herbicidal effect, visual injury 20-22 d after spraying, spring rape (BRSNN); assay type: in vivo
Source text: as §1, §2, §3, §4

[4] = system: Salsola kali (Russian thistle, SASKR); experiment: Greenhouse postemergence herbicidal effect, visual injury 20-22 d after spraying, Russian thistle (SASKR); assay type: in vivo; conditions: for % visual injury Obs: SASKR
Source text: as §1, §2, §3, §4

winter barley (HORVW) = experiment: Greenhouse postemergence crop phytotoxicity, visual injury 20-22 d after spraying, winter barley (HORVW); assay type: in vivo, Hordeum vulgare
Source text: as §1, §2, §3, §4

[5] = system: Matricaria discoidea (pineapple weed, MATMT); experiment: Greenhouse postemergence herbicidal effect, visual injury 20-22 d after spraying, pineapple weed (MATMT); assay type: in vivo
Source text: as §1, §2, §3, §4

[6] = system: Cirsium arvense (Canadian thistle, CIRAR); experiment: Greenhouse postemergence herbicidal effect, visual injury 20-22 d after spraying, Canadian thistle (CIRAR); assay type: in vivo
Source text: as §1, §2, §3, §4

[7] = system: Ipomoea hederacea (ivyleaf morningglory, IPOHE); experiment: Greenhouse postemergence herbicidal effect, visual injury 20-22 d after spraying, ivyleaf morningglory (IPOHE); assay type: in vivo
Source text: as §1
(§5) Emulsifiable concentrates of each of each pyridine carboxylate herbicide (Compound A or Compound B) were prepared at 100 grams acid equivalent per liter (g ae/L). The emulsifiable concentrates also included a safener, cloquintocet-mexyl, at 120 grams active ingredient per liter (g ai/L). […]
as §4

[8] = system: Stellaria media (common chickweed, STEME); experiment: Greenhouse postemergence herbicidal effect, visual injury 20-22 d after spraying, common chickweed (STEME); assay type: in vivo
Source text: as §1, §2, §3, §4

[9] = system: Capsella bursa-pastoris (shepherd's purse, CAPBP); experiment: Greenhouse postemergence herbicidal effect, visual injury 20-22 d after spraying, shepherd's purse (CAPBP); assay type: in vivo
Source text: as §1, §2, §3, §4

[10] = system: Kochia scoparia (kochia, KCHSC); experiment: Greenhouse postemergence herbicidal effect, visual injury 20-22 d after spraying, kochia (KCHSC); assay type: in vivo; conditions: for % visual injury Obs: KCHSC
Source text: as §1, §2, §3, §4

[11] = system: Abutilon theophrasti (velvetleaf, ABUTH); experiment: Greenhouse postemergence herbicidal effect, visual injury 20-22 d after spraying, velvetleaf (ABUTH); assay type: in vivo
Source text: as §1, §5, §4

## N#CCOC(=O)c1nc(-c2ccc3cc[nH]c3c2F)c(F)c(N)c1Cl [Compound A, cyanomethyl 4-amino-3-chloro-5-fluoro-6-(7-fluoro-1H-indol-6-yl)pyridine-2-carboxylate]
[1]; Compound A 7.5 g/ha
  % visual injury TRZAS Obs: 0%
[1]; Compound A 10 g/ha
  % visual injury TRZAS Obs: 0%
[1]; Compound A 15 g/ha
  % visual injury TRZAS Obs: 0%
[1]; Compound A 7.5 g/ha alone
  % visual injury Obs: 0%
[1]; Compound A 10 g/ha alone
  % visual injury Obs: 0%
[2]; Compound A 7.5 g/ha
  % visual injury HORVS Obs: 0%
[2]; Compound A 10 g/ha
  % visual injury HORVS Obs: 0%
[2]; Compound A 15 g/ha
  % visual injury HORVS Obs: 0%
[2]; Compound A 7.5 g/ha alone
  % visual injury Obs: 0% and 8%
[2]; Compound A 10 g/ha alone
  % visual injury Obs: 0%
[3]; Compound A 7.5 g/ha alone
  % visual injury Obs: 55%
[3]; Compound A 10 g/ha alone
  % visual injury Obs: 60% and 70%
[4]; Compound A 7.5 g/ha
  % visual injury SASKR Obs: 50%
[4]; Compound A 10 g/ha
  % visual injury SASKR Obs: 60%
[4]; Compound A 15 g/ha
  % visual injury SASKR Obs: 63%
[4]; Compound A 7.5 g/ha alone
  % visual injury Obs: 60% and 45% and 38%
[4]; Compound A 10 g/ha alone
  % visual injury Obs: 63% and 60%
Winter barley (HORVW); Compound A 7.5 g/ha
  % visual injury HORVW Obs: 0%
Winter barley (HORVW); Compound A 10 g/ha
  % visual injury HORVW Obs: 0%
Winter barley (HORVW); Compound A 15 g/ha
  % visual injury HORVW Obs: 0%
[5]; Compound A 7.5 g/ha
  % visual injury MATMT Obs: 20%
[5]; Compound A 10 g/ha
  % visual injury MATMT Obs: 20%
[5]; Compound A 15 g/ha
  % visual injury MATMT Obs: 63%
[6]; Compound A 7.5 g/ha
  % visual injury CIRAR Obs: 50%
[6]; Compound A 10 g/ha
  % visual injury CIRAR Obs: 63%
[6]; Compound A 15 g/ha
  % visual injury CIRAR Obs: 63%
[7]; Compound A 7.5 g/ha alone
  % visual injury Obs: 5%
[7]; Compound A 10 g/ha alone
  % visual injury Obs: 0%
[8]; Compound A 7.5 g/ha
  % visual injury STEME Obs: 85%
[8]; Compound A 10 g/ha
  % visual injury STEME Obs: 88%
[8]; Compound A 15 g/ha
  % visual injury STEME Obs: 89%
[9]; Compound A 7.5 g/ha
  % visual injury CAPBP Obs: 45%
[9]; Compound A 10 g/ha
  % visual injury CAPBP Obs: 55%
[9]; Compound A 15 g/ha
  % visual injury CAPBP Obs: 55%
[10]; Compound A 7.5 g/ha
  % visual injury KCHSC Obs: 63%
[10]; Compound A 10 g/ha
  % visual injury KCHSC Obs: 65%
[10]; Compound A 15 g/ha
  % visual injury KCHSC Obs: 63%
[10]; Compound A 7.5 g/ha alone
  % visual injury Obs: 63% and 50% and 70%
[10]; Compound A 10 g/ha alone
  % visual injury Obs: 63% and 58% and 55% and 70%
[11]; Compound A 7.5 g/ha alone
  % visual injury Obs: 40%
[11]; Compound A 10 g/ha alone
  % visual injury Obs: 48%

— patent US20210386068A1, “COMPOSITIONS COMPRISING PYRIDINE CARBOXYLATE HERBICIDES AND VERY LONG CHAIN FATTY ACID (VLCFA) SYNTHESIS INHIBITOR HERBICIDES” (priority 2018, published 2021)
